# According to patent US5691338A, “1,2-dithiole-3 thiones for the treatment of reverse transcriptase-dependent viral infections” (priority 1995, dated 1997):
# Where a name gives a salt, the structure may show the parent alone. Read-outs that look alike come from different tables or passages of the source.
# What was measured:
# [1] = test system: HIV-1 (HTLVIIIB); experiment: microbe, parasite or virus in culture; type: cell-based; details: H9 cells; for IC50: Human immunodeficiency virus 1
# Procedure: (§3) The effects for test compounds were assessed by means of both IFA and p24 release. In general, the following protocol was followed: H9 cells were infected with HIV-1 at 1000 50% infective doses of viruses/10^6 cells. Virus was allowed to adsorb for 1 h, after which unadsorbed virus was removed by centrifugation. The cells were resuspended and washed twice with PBS (without Ca^+2 or Mg^+2 salts) and centrifuged to collect the cell pellet (150×g×10 min). Cells were suspended in fresh medium and added at a final cell density of 500,000 cells/ml in a 96-well plate with media containing 0.1% DMSO and various concentrations of test compounds. The cells were re-fed freshly prepared media containing 0.1% DMSO±test compounds on day four (for preinduction experiments, cells were exposed to inducers on days -2, 0, and +4 days relative to infection). After seven days, cells were examined for cytoxicity by trypan blue exclusion, the degree of infection with HIV-1 by IFA, and the supernatants were assayed for p24 levels according to the manufacturer's directions. The IFA procedure can be summarized as follows: The cells were washed twice in PBS and were placed in 5 mm 12-well slides. After allowing the slides to dry and fixing the cells with acetone for 5 min, 10 μl of HIV-1 positive serum in 40 μl PBS was added to each well and allowed to incubate at 37° C. for 30 min. After incubation, the slides were washed twice with PBS and incubated at 37° C. for 30 min with 2.5 μl goat anti-human IgG-fluorescein isothiocyanate conjugate in 50 μl PBS containing 0.01% Evans Blue per well. The slides were then washed twice with PBS, dried, and mounted with 50% glycerol in PBS, and scored for the percentage of fluorescent cells by fluorescent microscopy.
# [2] = biological target: T1, HIV-1 reverse transcriptase (RT) (Human immunodeficiency virus type 1 group M subtype B, UniProt P04585); experiment: Time-dependent (irreversible) inhibition of HIV-1 reverse transcriptase after preincubation; type: biochemical; details: kinetic behaviour
# T1 construct: Recombinant HIV-1 reverse transcriptase (RT) was obtained from Worthington (Freehold, N.J.); purchased Worthington (Freehold, N.J.)
# Procedure: FIG. 6. […] RT was preincubated for the times indicated with oltipraz dissolved in DPBS containing 1 mg/ml bovine serum albumin, 0.13% DMSO, and either 4 μM TTP or 5 μg/ml poly(A):2.5 μg/ml oligo(dT). After incubation, 10 μl aliquots in triplicate were added to 25 μl of a reaction cocktail containing 4 μM TTP, 5 μg/ml poly(A), and 2.5 μg/ml oligo(dT) and assayed for TTP incorporation into DNA over 30 min. as described by Flexner, et al. (25). The insets are Kitz-Wilson transformations (41).
# (§1) Reverse transcriptase assays were performed as described by Flexner, et al. (25) using recombinant HIV-1 RT as the source of enzyme. Dilutions and assay were carried out in 96-well "half-area" plates. The enzyme with various concentrations of test compounds were dissolved in DPBS containing 1% w/v BSA and diluted in 50 μl volumes; 10 μl aliquots in triplicate were transferred to another plate for the enzyme assay. The reactions were initiated by the addition of 25 μl/well of buffer containing 50 mM Tris.cndot.Cl (pH 8.0), 75 mM KCl, 1 mM dithiothreitol, 2 mM MgCl2, 5 μg/ml poly(A), 2.5 μg/ml oligo (dT), 10 μCi/ml ^32 p TTP with or without unlabeled TTP. […] TTP incorporation was measured by spotting 20 μl of the reaction cocktail onto DE81 paper, washing the paper with 4×5 min washes of 300 mM NaCl and 30 mM sodium citrate (pH 7.0), drying the paper, and counting the paper by liquid scintillation counting. The assays performed with oltipraz and 1,2-dithiole-3-thione contained 0.29% final concentration DMSO.
# [3] = test system: quinone reductase (QR) in H9 cells; experiment: Elevation of quinone reductase (QR) in H9 cells; type: cell-based, human; details: for elevation of QR: dose- and time-dependent, H9 cells; for fold induction at 30 µM / fold induction at 60 µM / fold induction at 120 µM: Homo sapiens, read-out: Quinone reductase, treated to control value
# Procedure: (§2) Five ml of medium was added to T-25 flasks and DMSO containing tests compounds were added to a final concentration of 0.1%. Control medium contained 0.1% DMSO. After the drugs were added, 5×10^6 cells in 5 ml of medium was added to each T-25 flask. The cells were grown at 37° C. in a humidified incubator supplemented with 5% CO2 until harvested (N=3 flasks/group). At the indicated times, cells were isolated by centrifugation (500×g×10 min) and were washed three times by adding 10 ml of ice-cold DPBS, mixing, and centrifuging in a refrigerated centrifuge (500×g×10 min) to isolate the cell pellets. The cells were then lysed by the addition of 400 μl of ice-cold DPBS containing 0.5% Triton X-100 and vortexing. Supernatants were then isolated by centrifuging the lysates (5000×g×20 min). Samples were kept on ice or refrigerated until the reagents for QR or GSH spectrophotometric assays were added to the aliquoted microtiter plates. QR levels were determined by aliquoting 10 μl/well of supernatant in a 96-well plate and measuring the activity by the assay described by Prochaska and Santamaria (20) except that the final NADP^+ concentration was 200 μM (21). Samples were assayed in quadruplicate, and dicoumarol inhibitable-rates (which generally represented less than 5% of the total rate) were also measured. Spectrophotometric blanks contained 10 μl of DPBS with 0.5% Triton X-100. For the GSH assay, 300 μl of sample was placed in a centricon-10microconcentrator and centrifuged (5000×g×45 min) until enough ultrafiltrate could be collected. 50 μl/well of sample in quadruplicate was placed in a 96 well "half-area" plate after which 20 μl of 1 mM Ellman's reagent dissolved in DPBS was added. The yellow color (22) developed within 5 min and was scanned with a uvmax microtiter scanner (Palo Alto, Calif.) at 405 nm. Spectrophotometric blanks contained 50 μl DPBS with 0.5% Triton X-100 and 20 μl of 1 mM Ellman's reagent in DPBS. The optical densities of the specimens were calibrated to a GSH standard curve. Protein contents were determined in 3 ml cuvettes by the Bradford method (23). The protein content in the ultrafiltrates employed for GSH determinations were negligible (<0.01 mg/ml).
# We confirmed that the induction of QR in microtiter wells mirrored our results in T-25 flasks by using the method of Prochaska and Santamaria (20). Medium (100 μl) containing 0.1% final concentration DMSO was added to all wells except columns designated to contain the highest concentration of drug or spectrophotometric blanks in duplicate sets of U-bottomed microtiter plates. 200 μl of media containing drug (final DMSO concentration=0.1%) was added to the empty column of wells and then diluted in 2-fold serial dilutions across. After the serial dilutions were performed, 100 μl of media containing 1×10^6 cells/ml was added to each well, and the plates were placed in a 37° C. incubator for 48 h. One set of plates was assayed as described (21) for QR activity, the other was assayed for cell number by the method for Alley et al. (24).
# [4] = test system: H9 cells; experiment: Cytotoxicity in H9 cells by trypan blue exclusion; type: cell-based, human
# Procedure: as §3
# [5] = test system: glutathione levels (GSH) in H9 cells; experiment: Elevation of glutathione (GSH) levels in H9 cells; type: cell-based, human; details: for elevation of GSH: dose- and time-dependent, H9 cells; for fold induction at 30 µM / fold induction at 60 µM / fold induction at 120 µM: Homo sapiens, read-out: Glutathione levels, treated to control value
# Procedure: as §2
# [6] = biological target: T1, HIV-1 reverse transcriptase (RT); experiment: Inhibition of recombinant HIV-1 reverse transcriptase (TTP incorporation); type: biochemical; details: poly(A):oligo(dT) and TTP as substrates
# Procedure: as §1, with “DMSO. This concentration of DMSO had no effect on RT activity.” for “DMSO.”
# [7] = Exp 1, IFA, read-out: IC50 HIV-1 replication (Exp 1)
# [8] = Exp 2, IFA, read-out: IC50 HIV-1 replication (Exp 2)
structure (smiles),measurement,setting,value
CC(C)N(C(=O)Cc1c(-c2cncnc2)ssc1=S)C(C)C [compound 21],IC50,[1]; [7],1000 nM
same,IC50,[1]; [8],> 60000 nM
S=c1cc(-c2ccccc2)ss1 [compound 1],IC50 HIV-1 replication (Exp 1),"[1]; Exp 1, IFA",Inactive
same,IC50 HIV-1 replication (Exp 2),"[1]; Exp 2, IFA",Inactive
CCCCc1c(-c2ccc(N(C)C)nn2)ssc1=S [compound 24],IC50 HIV-1 replication (Exp 1),"[1]; Exp 1, IFA",Inactive
same,IC50 HIV-1 replication (Exp 2),"[1]; Exp 2, IFA",Inactive
CCc1c(-c2cnccn2)ssc1=S [compound 14],IC50,[1]; [7],15000 nM
same,IC50,[1]; [8],15000 nM
"Cc1c(-c2cccs2)ssc1=S [compound 9, 4-methyl-5-(2-thiofuranyl)-1,2-dithiole-3-thione]",IC50,[1]; [7],400 nM
same,IC50,[1]; [8],2000 nM
same,IC50,"[1]; N=5 independent experiments, IFA, read-out: IC50 HIV-1 replication",1800 ± 700 nM
same,irreversible inhibition of reverse transcriptase,[2],behaves kinetically as an irreversible inhibitor of reverse transcriptase
CC(C)c1ccc(Nc2ssc(=O)c2Cl)cc1 [compound 19],IC50,[1]; [7],> 60000 nM
same,IC50,[1]; [8],1000 nM
COc1ccc(-c2cc(=S)ss2)cc1 [compound 2],IC50 HIV-1 replication (Exp 1),"[1]; Exp 1, IFA",Inactive
same,IC50 HIV-1 replication (Exp 2),"[1]; Exp 2, IFA",Inactive
Cc1c(-c2ccccn2)ssc1=S [compound 5],IC50,[1]; [7],3000 nM
same,IC50,[1]; [8],10000 nM
O=c1cc(-c2cnccn2)ss1 [compound 3],IC50 HIV-1 replication (Exp 2),"[1]; Exp 2, IFA",Inactive
same,IC50,[1]; [7],4000 nM
OCc1c(-c2cnccn2)ssc1=S [compound 13],IC50,[1]; [7],400 nM
same,IC50,[1]; [8],200 nM
COC(=O)/C=C/C(=O)OC [dimethyl fumarate],inhibition of HIV-1 replication,[1]; up to 60 μM,inactive
same,elevation of QR,[3],able to elevate both GSH and QR levels
same,cytotoxicity at optimal inductive doses,[4],non-cytotoxic
same,elevation of GSH,[5],able to elevate both GSH and QR levels
"S=c1ccss1 [1,2-dithiole-3-thione]",inhibition of HIV-1 replication,[1]; up to 120 μM,inactive
same,Quinone Reductase Specific Activity,"[3]; 48 h, 30 μM",232 ± 16 nmol/min/mg
same,Quinone Reductase Specific Activity,"[3]; 48 h, 60 μM",244 ± 12.1 nmol/min/mg
same,Quinone Reductase Specific Activity,"[3]; 48 h, 120 μM",299 ± 11 nmol/min/mg
same,Quinone Reductase Specific Activity,"[3]; 96 h, 30 μM",59.4 ± 1.4 nmol/min/mg
same,Quinone Reductase Specific Activity,"[3]; 96 h, 60 μM",65.0 ± 2.1 nmol/min/mg
same,Quinone Reductase Specific Activity,"[3]; 96 h, 120 μM",109 ± 28 nmol/min/mg
same,fold induction at 30 µM,"[3]; H9, 48 h",1.61
same,fold induction at 60 µM,"[3]; H9, 48 h",1.67
same,fold induction at 120 µM,"[3]; H9, 48 h",2.07
same,fold induction at 30 µM,"[3]; H9, 96 h",1.17
same,fold induction at 60 µM,"[3]; H9, 96 h",1.71
same,fold induction at 120 µM,"[3]; H9, 96 h",2.15
same,elevation of QR,[3],able to elevate both GSH and QR levels
same,inhibition of recombinant HIV-1 reverse transcriptase,[6],inactive
same,cytotoxicity at optimal inductive doses,"[4]; up to 30 μM (tert-butylhydroquinone), 120 μM (1,2-dithiole-3-thione), 60 μM (dimethyl fumarate)",non-cytotoxic
same,Glutathione Levels,"[5]; 48 h, 30 μM",53.5 ± 7.1 nmol/mg
same,Glutathione Levels,"[5]; 48 h, 60 μM",57.5 ± 1.3 nmol/mg
same,Glutathione Levels,"[5]; 48 h, 120 μM",74.9 ± 3.6 nmol/mg
same,Glutathione Levels,"[5]; 96 h, 30 μM",59.4 ± 1.4 nmol/mg
same,Glutathione Levels,"[5]; 96 h, 60 μM",65.0 ± 2.1 nmol/mg
same,Glutathione Levels,"[5]; 96 h, 120 μM",109 ± 28 nmol/mg
same,fold induction at 30 µM,"[5]; H9, 48 h",1.17
same,fold induction at 60 µM,"[5]; H9, 48 h",1.26
same,fold induction at 120 µM,"[5]; H9, 48 h",1.63
same,fold induction at 30 µM,"[5]; H9, 96 h",1.17
same,fold induction at 60 µM,"[5]; H9, 96 h",1.71
same,fold induction at 120 µM,"[5]; H9, 96 h",2.15
same,elevation of GSH,[5],able to elevate both GSH and QR levels
Cc1c(C=Cc2cnccn2)ssc1=S [compound 10],IC50,[1]; [7],> 60000 nM
same,IC50,[1]; [8],> 60000 nM
